# Source: BindingDB's records for doi:10.1021/acs.jmedchem.6b00397 (IQM-CSIC, 2016)
# Target: Cannabinoid receptor 2 (Homo sapiens, UniProt P34972)
# Assay: Displacement of [3H]-CP55940 from human CB2 receptor expressed in HEK293 cell membranes after 90 mins by liquid scintillation counting method
# Sequence of Cannabinoid receptor 2 (P34972 whole entry): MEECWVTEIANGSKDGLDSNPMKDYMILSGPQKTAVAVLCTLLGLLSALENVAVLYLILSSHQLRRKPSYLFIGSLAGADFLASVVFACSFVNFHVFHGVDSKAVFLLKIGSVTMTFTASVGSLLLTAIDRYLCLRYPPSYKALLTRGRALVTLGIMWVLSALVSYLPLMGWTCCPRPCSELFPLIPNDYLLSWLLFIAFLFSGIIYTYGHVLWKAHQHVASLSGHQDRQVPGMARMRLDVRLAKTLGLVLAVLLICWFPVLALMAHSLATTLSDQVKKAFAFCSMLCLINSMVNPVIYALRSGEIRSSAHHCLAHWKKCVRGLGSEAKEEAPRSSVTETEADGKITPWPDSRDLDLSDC
row,Structure (SMILES),Ki [µM]
1,CCCCCCC(C)(C)c1cc(O)c2c(c1)OC(C)(C)c1cnn(CC)c1-2,> 40
2,CCCCCCC(C)(C)c1cc(O)c2c(c1)OC(C)(C)c1cn(C)nc1-2,> 40
3,CCCCCCC(C)(C)c1cc(O)c2c(c1)OC(C)(C)c1cnn(-c3ccc(Cl)cc3Cl)c1-2,> 40
4,CCCCCCC(C)(C)c1cc(O)c2c(c1)OC(C)(C)c1cn(CC)nc1-2,> 40
